Measurements taken from patent US12042500B2, “Mucoadhesive drug delivery system for ocular administration of fluoroquinolone antibiotics” (HYDERABAD EYE RESEARCH FOUNDATION, priority 2018, dated 2024).
Marks after values point to notes of the source that are not given here.

What was measured:
[1] = system: Staphylococcus aureus (ATCC 25923) infected human cornea; test: Antibacterial activity in ex vivo corneal infection model; type: cell-based; details: infected cornea incubated 30 min with 0.4% formulation, then 24 h; 10^−7 dilution; n=3
Protocol: Human corneas were incubated in antibiotic free DMEM media overnight at 37° C. […] After 24 h incubation at 37° C., the infected corneas were washed again with PBS and used for further studies. The infection-free corneas were used as controls (Pinnock, et. al, 2017). Infected cornea was washed, and a metal ring was placed on the corneoscleral button, creating a watertight seal. Drug formulations (0.4%) were added to the center of the ring and incubated for 0.5 and 1.5 h at 37° C. Later, the corneas were washed thoroughly with PBS to remove the excess formulation and incubated for 24 h at 37° C. The cornea was then homogenized, and the resulting suspension was serially diluted. A 10 μl sample was spotted on agar plates at 10^−5, 10^−6, 10^−7, 10^−8 dilutions for colony enumeration. The colonies were counted visually and expressed in colony forming units (CFU) using Equation 2. The antibacterial activity of drugs loaded in hydrogel formulations was evaluated against Staphylococcus aureus (ATCC 25923) infected human cornea (n=3).

excised human cornea = system: excised human cornea
Protocol: HPLC analysis was performed using Shimadzu Prominence UFLC, LC-20 system (Shimadzu, Japan) with a C18 column (Shimpack GIST column, 5 μm, 4.6×250 mm). The mobile phase used for besifloxacin analysis comprised of a mixture of 0.5% triethylamine solution (pH adjusted to 3.0 with 10% ortho-phosphoric acid) and acetonitrile (ACN) (74:26, v/v) (Costa et al, 2014). […] The injection volume was 50 μl for all the standards and test solutions. The flow rate and column temperature were maintained at 1.0 ml/min and 25° C., respectively. […] The amount of drug release was determined using respective standard calibration curves.
Excised human cornea was washed with PBS and mounted between donor and receptor compartments with epithelial side facing donor chamber. Receptor medium contained PBS maintained at 37±1° C. temperature using heated water circulator unit. The donor compartment was charged with 0.4% of drug containing polymeric hydrogel, standard drug solution or marketed formulation. Samples (300 μl) were withdrawn from the receptor chamber at predetermined time intervals including 0.5, 1, 2, 4, 6, 12 and 24 h. Samples were analyzed by HPLC method described above. […] Corneal permeation parameters were calculated from cumulative amount of drug permeated vs. time profile. Flux (J) was calculated from the slope of the linear portion of cumulative amount of permeated vs. time profile. Lag time (ttag) was calculated by extrapolating the linear portion of the curve to time axis. Permeability coefficient (Kp) was calculated using Equation 1.

[2] = In vitro drug release study, Franz diffusion cell with dialysis membrane; type: physicochemical; details: PBS pH 7.4, 33±1° C., 2 mg drug in donor
Protocol: In vitro release of drugs was performed using Franz diffusion cell apparatus (Permegear Inc., USA). […] The donor compartment was loaded with 2 mg of drug containing polymeric hydrogel or standard drug solution or marketed formulation. […] Samples were analyzed using HPLC method described above.

N[C@@H]1CCCCN(c2c(F)cc3c(=O)c(C(=O)O)cn(C4CC4)c3c2Cl)C1 [Besifloxacin Std., besifloxacin]
CFU/ml [1]: 2.5 ± 0.82 CFU/ml (×10^9) | Permeability coefficient (excised human cornea): 15.57 ×10^−3, cm^2/h | Diffusion coefficient (excised human cornea; human, 0.4 %): 21.34 ×10^−3 | Flux (excised human cornea; human, 0.4 %): 36.80 ± 13.99 μg/cm^2/h | Lag time (excised human cornea; human, 0.4 %): 1.22 ± 0.39 h | Corneal tissue concentration (excised human cornea; human, 0.5 h, 0.4 %): 398±50 μg/gram of tissue | Cumulative amount permeated (excised human cornea; human, 24 h, 0.4 %): 1267.42 ± 37.56 μg/cm^2 | Cumulative amount permeated across cornea (excised human cornea; human, 24 h, 0.4 %): 1267 ± 38 µg | Time to 100% release / complete diffusion across the membrane [2]: ≤ 10 h

C[C@H]1COc2c(N3CCN(C)CC3)c(F)cc3c(=O)c(C(=O)O)cn1c23 [Levofloxacin Std., levofloxacin]
CFU/ml [1]: 8.3 ± 5.10 CFU/ml (×10^9)
